The NIST ThermoML archive (doi:10.1016/j.jct.2018.05.019)
± gives the expanded uncertainty stated by the source.

Details: 101.33 kPa, Liquid, transient hot wire

CCO [ethanol]
Details | thermal conductivity [W/m/K]
276.51 K | 0.1719 ± 0.0069
280.8 K | 0.1687 ± 0.0068
284.27 K | 0.1699 ± 0.0068
290.37 K | 0.1677 ± 0.0067
293.43 K | 0.1658 ± 0.0067

CCCC(=O)OC [methyl butanoate]
Details | thermal conductivity [W/m/K]
283.34 K | 0.1459 ± 0.0059
288.3 K | 0.1442 ± 0.0058
293.39 K | 0.1416 ± 0.0057
297.41 K | 0.1401 ± 0.0056
298.44 K | 0.1397 ± 0.0056
301.3 K | 0.1391 ± 0.0056
305.42 K | 0.1372 ± 0.0055
309.31 K | 0.136 ± 0.0055
313.29 K | 0.1353 ± 0.0054
318.38 K | 0.1333 ± 0.0054
323.35 K | 0.1314 ± 0.0053
328.55 K | 0.1295 ± 0.0052
333.25 K | 0.128 ± 0.0052
338.4 K | 0.1261 ± 0.0051
343.25 K | 0.1249 ± 0.005
348.24 K | 0.1233 ± 0.005
353.35 K | 0.1215 ± 0.0049
358.18 K | 0.1207 ± 0.0049

CCCCCC(=O)OC [methyl hexanoate]
Details | thermal conductivity [W/m/K]
263.83 K | 0.1482 ± 0.006
268.65 K | 0.1472 ± 0.0059
273.7 K | 0.1448 ± 0.0058
278.59 K | 0.1439 ± 0.0058
283.75 K | 0.142 ± 0.0057
288.67 K | 0.1405 ± 0.0057
293.64 K | 0.1395 ± 0.0056
298.72 K | 0.1376 ± 0.0055
303.63 K | 0.1367 ± 0.0055
308.61 K | 0.1344 ± 0.0054
313.6 K | 0.1336 ± 0.0054
321.08 K | 0.1315 ± 0.0053
328.54 K | 0.1301 ± 0.0052
333.52 K | 0.1284 ± 0.0052
338.55 K | 0.1269 ± 0.0051
343.49 K | 0.1259 ± 0.0051
348.48 K | 0.1243 ± 0.005
353.7 K | 0.1231 ± 0.005
358.38 K | 0.1219 ± 0.0049
363.41 K | 0.1205 ± 0.0049
368.5 K | 0.1191 ± 0.0048

CCCCCCCCC(=O)OC [methyl nonanoate]
Details | thermal conductivity [W/m/K]
278.44 K | 0.1448 ± 0.0059
283.5 K | 0.1441 ± 0.0059
288.5 K | 0.1428 ± 0.0058
293.36 K | 0.1418 ± 0.0058
298.3 K | 0.141 ± 0.0058
303.31 K | 0.1393 ± 0.0057
308.24 K | 0.1387 ± 0.0057
313.3 K | 0.1371 ± 0.0056
318.29 K | 0.1365 ± 0.0056
323.25 K | 0.1347 ± 0.0055
328.25 K | 0.1337 ± 0.0055
333.06 K | 0.1327 ± 0.0054
338.16 K | 0.1313 ± 0.0054
343.23 K | 0.1299 ± 0.0053
348.07 K | 0.1289 ± 0.0053
353.12 K | 0.1277 ± 0.0052
358.24 K | 0.1263 ± 0.0052
363.07 K | 0.1256 ± 0.0051
368.1 K | 0.1242 ± 0.0051
373.11 K | 0.1227 ± 0.005
378.24 K | 0.1213 ± 0.005
383.21 K | 0.1207 ± 0.0049

CCCCCCCC(=O)OC [methyl octanoate]
Details | thermal conductivity [W/m/K]
273.56 K | 0.145 ± 0.0059
278.48 K | 0.1446 ± 0.0059
283.44 K | 0.1428 ± 0.0058
288.35 K | 0.1423 ± 0.0058
293.42 K | 0.1405 ± 0.0057
298.33 K | 0.1395 ± 0.0057
303.21 K | 0.1387 ± 0.0057
308.29 K | 0.1374 ± 0.0056
313.29 K | 0.1361 ± 0.0056
318.22 K | 0.1348 ± 0.0055
323.2 K | 0.1335 ± 0.0055
328.3 K | 0.132 ± 0.0054
333.41 K | 0.1304 ± 0.0053
338.32 K | 0.1294 ± 0.0053
343.27 K | 0.1285 ± 0.0053
348.12 K | 0.1275 ± 0.0052
353.23 K | 0.126 ± 0.0052
358.28 K | 0.1246 ± 0.0051
363.09 K | 0.1238 ± 0.0051
368.27 K | 0.1223 ± 0.005
373.24 K | 0.1212 ± 0.005
378.21 K | 0.1196 ± 0.0049
383.17 K | 0.1189 ± 0.0049
388.44 K | 0.1173 ± 0.0048
393.54 K | 0.116 ± 0.0047

CCCCC(=O)OC [methyl pentanoate]
Details | thermal conductivity [W/m/K]
285.55 K | 0.143 ± 0.0058
290.39 K | 0.1405 ± 0.0057
295.51 K | 0.1385 ± 0.0056
298.99 K | 0.1373 ± 0.0055
305.5 K | 0.1356 ± 0.0055
312.35 K | 0.1336 ± 0.0054
320.42 K | 0.1313 ± 0.0053
327.35 K | 0.1295 ± 0.0052
333.5 K | 0.1272 ± 0.0051
340.41 K | 0.1246 ± 0.005
348.36 K | 0.1229 ± 0.005
355.39 K | 0.1212 ± 0.0049
362.16 K | 0.1194 ± 0.0048

O [water]
Details | thermal conductivity [W/m/K]
293.09 K | 0.6056 ± 0.024
299.55 K | 0.613 ± 0.025
309.83 K | 0.6313 ± 0.025
314.96 K | 0.6399 ± 0.026
319.56 K | 0.6399 ± 0.026
324.64 K | 0.6492 ± 0.026
332.53 K | 0.6555 ± 0.026
339.33 K | 0.657 ± 0.026
340.41 K | 0.6654 ± 0.027
349.41 K | 0.6723 ± 0.027
